As usually defined, the IC50 is the midpoint of a concentration-inhibition curve.

Where a name gives a salt, the structure may show the parent alone. Read-outs that look alike come from different tables or passages of the source.

Consider 17 compounds from patent US10899764B2, “Imidazo isoindole derivative, preparation method therefor and medical use thereof” (Jiangsu Hengrui Medicine Co., Ltd., priority 2015, dated 2021).

One experiment deals with IDO in HeLa cells (Homo sapiens (Human), UniProt P14902). The experiment in a line: Inhibition activity on IDO in HeLa cells (INF-γ induced). The conditions noted are these: HeLa cells, INF-γ and tryptophan, 48 hours; read-out: IC50 for inhibiting the activity of IDO in HeLa cells. In kind it is cell-based. Here is the method: Assay for Determining the Inhibition Activity of the Present Compounds on IDO in HeLa Cells
IDO activity in HeLa cells was tested in vitro by the following method.
This method is used to determine the inhibition effect of the compounds of the present invention on the activity of IDO in HeLa cells. (Note: indoleamine 2,3-dioxygenase (IDO) is expressed in the HeLa cell line and induced by interferon gamma (INF-γ)).
The supernatant was removed, serum-free DMEM high glucose medium was added at 90 μL/well, then the compounds contained in the culture medium with INF-γ and tryptophan were added at 10 μL/well (the final concentrations: 10000, 1000, 100, 10, 1, 0.1 nM). […] Then, 80 μL of the supernate was transferred from the 96-well cell culture plate to a 96 well round-bottomed plate, then 30% (W/V) trichloroacetic acid was added at 16 μL/well, then the mixture was incubated for 25 minutes at 65° C. in an incubator. The reaction plate was centrifuged in a centrifuge for 5 minutes at 4700 RPM. Then, 50 μL of the supernatant was transferred from the reaction plate to a 96-well flat-bottomed transparent plate by a multi-channel pipette. Then, 2% (W/V) 4-(dimethylamino)benzaldehyde/glacial acetic acid solution was added at 50 μL/well, then the mixture was mixed uniformly for 1 minute on a shaker. After incubation for 2 minutes at room temperature, the absorbance at 480 nm was read on a Synergy HT Reader.
The inhibition activity of the compounds of the present invention on IDO in HeLa cells was tested by the assay described above.

A further experiment deals with human IDO1 (Homo sapiens (Human), UniProt P14902). The experiment in a line: Inhibition activity on human IDO1 (enzyme assay, absorbance at 480 nm). The format is biochemical. The settings on record: read-out: IC50 for inhibiting the activity of human IDO1. How it is done: Assay for Determining the Inhibition Activity of the Present Compounds on Human IDO1
Human IDO1 activity was tested in vitro by the following method.
This method is used to determine the inhibition effect of the compounds of the present invention on the activity of human IDO1.
The human IDO1 gene was transferred to Pet30a plasmid by gene cloning, and then transferred to competent Escherichia coli Rosseta. The IDO1 gene was scaled-up by culturing in liquid LB (Luria-Bertani) medium [which was prepared per liter according to “Molecular Cloning A Laboratory Manual” (J. Sambrook, D. W. Russell)]). The bacteria were collected and lysed by ultrasonic waves. The purified IDO1 was obtained by eluting from a column.
For testing, 24 μL of enzyme (IDO1) was diluted 100 times with 50 mM KPB to 2400 μL. The concentration of the enzyme solution was 2.6 ng/μL. A 96 well reaction plate (AXYGEN, PCR-96-FLT-C) (hereinafter referred to as the “reaction plate”) was added with the enzyme solution at 24 μL/well. The blank well was added with 24 μL of KPB [Preparation of KPB buffer (50 mM): 6.805 g of KH2PO4 was weighed using an analytical balance, and placed into a 1000 mL beaker, deionized water was added with a measuring cylinder to 900 ml, the pH was adjusted to 6.5 by 1M KOH, then the mixture was introduced into a 1 L measuring cylinder, and water was added to 1 L. It was stored at 4° C.]. Then, 1 μL of a compound or DMSO was added into the corresponding wells in the reaction plate. Preparation of solution A: 200 μL of 500 mM L-sodium ascorbate were added with 1050 μL of KPB, then the mixture was mixed uniformly for 3 seconds at the maximum speed in a turbine mixer. Solution B: 100 μL of 10 mM tryptophan were added with 100 μL of 100,000 unit/mL catalase, 5 μL of 10 mM methylene blue, and 1050 μL of KPB successively, then the mixture was mixed uniformly for 3 seconds at the maximum speed in a turbine mixer. Then, 1200 μL of solution A and 1200 μL of solution B were taken and mixed uniformly for 3 seconds at the maximum speed in a turbine mixer. The mixture was added to the reaction plate at 24 μL/well. The reaction plate was placed in a plate centrifuge and centrifuged for 15 seconds at the maximum speed, so that the reaction liquids converged to the bottom. The reaction mixture was mixed uniformly for 30 seconds on a shaker, and incubated for 1 hour at 37° C. in a constant temperature incubator. In the reaction plate, 30% (W/V) trichloroacetic acid was added at 10 μL/well, then the mixture was incubated for 15 minutes at 65° C. in an incubator. The reaction plate was centrifuged in a centrifuge for 5 minutes at 4700 RPM at room temperature. […] Then, 2% (W/V) 4-(dimethylamino)benzaldehyde/glacial acetic acid solution was added at 40 μL/well, and the mixture was mixed uniformly for 1 minute on a shaker at the maximum speed. After incubation for 2 minutes at room temperature, the absorbance at 480 nm was read on a Synergy HT (BIOTEK) reader.
The inhibition activity of the compounds of the present invention on human IDO1 was tested by the assay described above.

[1] abbreviates: purified recombinant human IDO1, 1 hour at 37° C.

Chain of human IDO1 (P14902 whole entry): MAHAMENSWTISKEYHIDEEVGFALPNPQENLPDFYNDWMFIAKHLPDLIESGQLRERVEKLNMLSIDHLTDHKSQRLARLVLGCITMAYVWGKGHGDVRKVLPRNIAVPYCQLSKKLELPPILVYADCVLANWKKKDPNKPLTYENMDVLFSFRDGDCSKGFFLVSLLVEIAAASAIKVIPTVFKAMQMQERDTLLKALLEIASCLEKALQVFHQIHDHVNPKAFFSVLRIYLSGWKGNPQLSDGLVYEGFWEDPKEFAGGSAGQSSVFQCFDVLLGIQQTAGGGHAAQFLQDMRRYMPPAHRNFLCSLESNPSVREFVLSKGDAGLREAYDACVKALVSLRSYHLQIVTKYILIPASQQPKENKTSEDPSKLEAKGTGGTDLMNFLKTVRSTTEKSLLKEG
Chain of IDO in HeLa cells (P14902 whole entry): as above

Consider `COc1cccc(NC(=O)C2CCC([C@@H]3c4c(F)cccc4-c4cncn43)CC2)c1` (stereo partly drawn) [Example 33, (1S,4S)-4-((R)-6-fluoro-5H-imidazo[5,1-a]isoindol-5-yl)-N-(3-methoxyphenyl)cyclohexanecarboxamide], for which the IC50 on IDO in HeLa cells worked out at 47.2 nM.
For `Fc1cccc2c1C(C1CCN(c3ccc(-c4cnn([C@@H]5CCOC5)c4)cc3)CC1)n1cncc1-2` (stereo partly drawn) [Example 32, 6-fluoro-5-(1-(4-(1-((R)-tetrahydrofuran-3-yl)-1H-pyrazol-4-yl)phenyl)piperidin-4-yl)-5H-imidazo[5,1-a]isoindole trifluoroacetate], the IC50 was determined as 225 nM on IDO in HeLa cells and 33 nM at human IDO1.
In the case of `O=C(Nc1ccccc1)N1CCC(C2c3c(F)cccc3-c3cncn32)CC1` (stereo not shown) [Example 21, 4-(6-fluoro-5H-imidazo[5,1-a]isoindol-5-yl)-N-phenylpiperidine-1-carboxamide trifluoroacetate], the IC50 on IDO in HeLa cells came to 477 nM.
`O=C(NC1CCOCC1)c1ccc(N2CCC(C3c4c(F)cccc4-c4cncn43)CC2)cc1` (stereo not shown) [Example 11, 4-(4-(6-fluoro-5H-imidazo[5,1-a]isoindol-5-yl)piperidin-1-yl)-N-(tetrahydro-2H-pyran-4-yl)benzamide trifluoroacetate]: the IC50 at IDO in HeLa cells came to 477 nM; on human IDO1 (setting [1]) it was 73.2 nM.
`CS(=O)(=O)N1CCC(n2cc(-c3ccc(N4CCC(C5c6c(F)cccc6-c6cncn65)CC4)cc3)cn2)CC1` (stereo not shown) [Example 31, 6-fluoro-5-(1-(4-(1-(1-(methylsulfonyl)piperidin-4-yl)-1H-pyrazol-4-yl)phenyl)piperidin-4-yl)-5H-imidazo[5,1-a]isoindole trifluoroacetate]: on human IDO1, the IC50 is 14.2 nM.
In the case of `Fc1cccc2c1C(C1CCN(c3ccc(OC4CCOC4)cc3)CC1)n1cncc1-2` (stereo not shown) [Example 38, 6-fluoro-5-(1-(4-((tetrahydrofuran-3-yl)oxy)phenyl)piperidin-4-yl)-5H-imidazo[5,1-a]isoindole], the IC50 worked out at 151 nM at IDO in HeLa cells and 28.1 nM at human IDO1 (setting [1]).
With `N#Cc1ccc(NC(=O)N2CCC(C3c4c(F)cccc4-c4cncn43)CC2)cc1` (stereo not shown) [Example 22, N-(4-cyanophenyl)-4-(6-fluoro-5H-imidazo[5,1-a]isoindol-5-yl)piperidine-1-carboxamide trifluoroacetate], the IC50 turned out to be 130 nM at IDO in HeLa cells and 56.9 nM on human IDO1 (setting [1]).
With `Fc1cccc2c1C(C1CCN(c3ccc(-c4cnn(C5CCOC5)c4)cc3)CC1)n1cncc1-2` [Example 44, 6-fluoro-5-(1-(4-(1-((R)-tetrahydrofuran-3-yl)-1H-pyrazol-4-yl)phenyl)piperidin-4-yl)-5H-imidazo[5,1-a]isoindole trifluoroacetate], the values for the 50% inhibitory concentration (IC50) at IDO in HeLa cells and at human IDO1 were 175 nM and 16.6 nM, respectively.
Turning to `Cn1cc(-c2cccc(N3CCC(C4c5c(F)cccc5-c5cncn54)CC3)c2)cn1` (stereo not shown) [Example 8, 6-fluoro-5-(1-(3-(1-methyl-1H-pyrazol-4-yl)phenyl)piperidin-4-yl)-5H-imidazo[5,1-a]isoindole], the values for the IC50 on IDO in HeLa cells and on human IDO1 (setting [1]) were 253 nM and 78.8 nM, respectively.
Consider `Fc1cccc2c1C(C1CCN(c3ccc(Cl)cn3)CC1)n1cncc1-2` (stereo not shown) [Example 47, 5-(1-(5-chloropyridin-2-yl)piperidin-4-yl)-6-fluoro-5H-imidazo[5,1-a]isoindole], for which the IC50 at IDO in HeLa cells worked out at 88.3 nM.
`Fc1cccc2c1C(C1CCN(c3ncccn3)CC1)n1cncc1-2` (stereo not shown) [Example 16, 6-fluoro-5-(1-(pyrimidin-2-yl)piperidin-4-yl)-5H-imidazo[5,1-a]isoindole trifluoroacetate]: at IDO in HeLa cells, the IC50 turned out to be 260 nM.
On to `CC(=O)Nc1cccc(N2CCC(C3c4c(F)cccc4-c4cncn43)CC2)c1` (stereo not shown) [Example 12, N-(3-(4-(6-fluoro-5H-imidazo[5,1-a]isoindol-5-yl)piperidin-1-yl)phenyl)acetamide trifluoroacetate], for which the figures for the concentration for half-maximal inhibition (IC50) on IDO in HeLa cells and on human IDO1 (setting [1]) were 70.6 nM and 68.7 nM, respectively.
For `Fc1cccc2c1C(C1CCN(c3ccccn3)CC1)n1cncc1-2` (stereo not shown) [Example 15, 6-fluoro-5-(1-(pyridin-2-yl)piperidin-4-yl)-5H-imidazo[5,1-a]isoindole trifluoroacetate], the IC50 on IDO in HeLa cells came out at 199 nM.
Take `CS(=O)(=O)N1CCCC(Oc2cnc(N3CCC(C4c5c(F)cccc5-c5cncn54)CC3)nc2)C1` (stereo not shown) [Example 37, 6-fluoro-5-(1-(5-((1-(methylsulfonyl)piperidin-3-yl)oxy)pyrimidin-2-yl)piperidin-4-yl)-5H-imidazo[5,1-a]isoindole trifluoroacetate]: the IC50 on IDO in HeLa cells amounted to 114 nM; on human IDO1 (setting [1]), 17.8 nM.
The corresponding values for `COc1ccc(N2CCC(C3c4c(F)cccc4-c4cncn43)CC2)cc1` (stereo not shown) [Example 4, 6-fluoro-5-(1-(4-methoxyphenyl)piperidin-4-yl)-5H-imidazo[5,1-a]isoindole trifluoroacetate] are 188 nM and 96.2 nM.
`COCCn1cc(-c2ccc(N3CCC(C4c5c(F)cccc5-c5cncn54)CC3)cc2)cn1` (stereo not shown) [Example 42, 6-fluoro-5-(1-(4-(1-(2-methoxyethyl)-1H-pyrazol-4-yl)phenyl)piperidin-4-yl)-5H-imidazo[5,1-a]isoindole trifluoroacetate]: the values for the IC50 on IDO in HeLa cells and on human IDO1 were 254 nM and 36.3 nM, respectively.
For the compound `CC(=O)NCCn1cc(-c2ccc(N3CCC(C4c5c(F)cccc5-c5cncn54)CC3)cc2)cn1` (stereo not shown) [Example 43, N-(2-(4-(4-(4-(6-fluoro-5H-imidazo[5,1-a]isoindol-5-yl)piperidin-1-yl)phenyl)-1H-pyrazol-1-yl)ethyl)acetamide trifluoroacetate], the figures for the IC50 on IDO in HeLa cells and at human IDO1 were 171 nM and 63.3 nM, respectively.
